Data reported in PubChem BioAssay (NCI).
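Compound exposure: 48 hours, 5 concentrations, 96-well plates. TGI is the concentration that stops growth completely.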

Experiments:
Test in all cases: DTP human tumour cell line panel, 48 h
[1] = test system: 786-0 renal
[2] = test system: A498 renal
[3] = test system: A549 NSCLC
[4] = test system: ACHN renal
[5] = test system: CAKI-1 renal
[6] = test system: CCRF-CEM leukemia
[7] = test system: COLO 205 colon
[8] = test system: DU-145 prostate
[9] = test system: EKVX NSCLC
[10] = test system: HCC-2998 colon
[11] = test system: HCT-116 colon
[12] = test system: HCT-15 colon
[13] = test system: HL-60(TB) leukemia
[14] = test system: HOP-62 NSCLC
[15] = test system: HOP-92 NSCLC
[16] = test system: HS 578T breast
[17] = test system: HT29 colon
[18] = test system: IGROV1 ovarian
[19] = test system: K-562 leukemia
[20] = test system: KM12 colon
[21] = test system: LOX IMVI melanoma
[22] = test system: M14 melanoma
[23] = test system: MALME-3M melanoma
[24] = test system: MCF7 breast
[25] = test system: MDA-MB-231 breast
[26] = test system: MDA-MB-435
[27] = test system: MDA-N
[28] = test system: MOLT-4 leukemia
[29] = test system: NCI-H226 lung
[30] = test system: NCI-H23 lung
[31] = test system: NCI-H460 lung
[32] = test system: NCI-H522 lung
[33] = test system: NCI/ADR-RES ovarian
[34] = test system: OVCAR-3 ovarian
[35] = test system: OVCAR-4 ovarian
[36] = test system: OVCAR-5 ovarian
[37] = test system: OVCAR-8 ovarian
[38] = test system: PC-3 prostate
[39] = test system: RPMI-8226 leukemia
[40] = test system: RXF 393 renal
[41] = test system: SF-268 CNS
[42] = test system: SF-295 CNS
[43] = test system: SF-539 CNS
[44] = test system: SK-MEL-2 melanoma
[45] = test system: SK-MEL-28 melanoma
[46] = test system: SK-MEL-5 melanoma
[47] = test system: SK-OV-3 ovarian
[48] = test system: SN12C renal
[49] = test system: SNB-19 CNS
[50] = test system: SNB-75 CNS
[51] = test system: SR leukemia
[52] = test system: SW-620 colon
[53] = test system: T-47D breast
[54] = test system: TK-10 renal
[55] = test system: U251 CNS
[56] = test system: UACC-257 melanoma
[57] = test system: UACC-62 melanoma
[58] = test system: UO-31 renal
[59] = test system: BT-549 breast

N=C1N(c2ccccc2)C(=S)C(=Nc2ccccc2)N1c1ccccc1
TGI [1]: 22.2 µM | TGI [2]: 31.8 µM | TGI [3]: 42.1 µM | TGI [4]: 20.6 µM | TGI [5]: 27.7 µM | TGI [6]: > 20.7 µM | TGI [7]: 12.1 µM | TGI [8]: 31.2 µM | TGI [9]: 53.1 µM | TGI [10]: 30.7 µM | TGI [11]: 7.26 µM | TGI [12]: 21.9 µM | TGI [13]: 10.9 µM | TGI [14]: 34.1 µM | TGI [15]: 22.9 µM | TGI [16]: 47.4 µM | TGI [17]: 18.3 µM | TGI [18]: 25.9 µM | TGI [19]: 9.59 µM | TGI [20]: 27.2 µM | TGI [21]: 5.14 µM | TGI [22]: 23.6 µM | TGI [23]: 26.6 µM | TGI [24]: 3.46 µM | TGI [25]: 20.9 µM | TGI [26]: 3.94 µM | TGI [27]: 6.1 µM | TGI [28]: 7.55 µM | TGI [29]: 36.3 µM | TGI [30]: 18 µM | TGI [31]: 31 µM | TGI [32]: 7.72 µM | TGI [33]: 38.6 µM | TGI [34]: 9.55 µM | TGI [35]: 26.8 µM | TGI [36]: 32.1 µM | TGI [37]: 16.7 µM | TGI [38]: 24.8 µM | TGI [39]: 13.9 µM | TGI [40]: 25 µM | TGI [41]: 29.7 µM | TGI [42]: 30.5 µM | TGI [43]: 24.9 µM | TGI [44]: 12.4 µM | TGI [45]: 31.7 µM | TGI [46]: 6.21 µM | TGI [47]: 33 µM | TGI [48]: 27.8 µM | TGI [49]: 30.4 µM | TGI [50]: 29.4 µM | TGI [51]: > 48.4 µM | TGI [52]: 13 µM | TGI [53]: 9.21 µM | TGI [54]: 28.2 µM | TGI [55]: 27.3 µM | TGI [56]: 7.52 µM | TGI [57]: 13.5 µM | TGI [58]: 16.7 µM

Cc1nc2c(=O)n(C)c(=O)n(C)c2o1
TGI [1]: > 100 µM | TGI [2]: > 100 µM | TGI [3]: > 100 µM | TGI [4]: > 100 µM | TGI [59]: > 100 µM | TGI [5]: > 100 µM | TGI [6]: > 100 µM | TGI [7]: > 100 µM | TGI [9]: > 100 µM | TGI [10]: > 100 µM | TGI [11]: > 100 µM | TGI [12]: > 100 µM | TGI [14]: > 100 µM | TGI [15]: > 100 µM | TGI [16]: > 100 µM | TGI [17]: > 100 µM | TGI [18]: > 100 µM | TGI [19]: > 100 µM | TGI [20]: > 100 µM | TGI [21]: > 100 µM | TGI [22]: > 100 µM | TGI [23]: > 100 µM | TGI [25]: > 100 µM | TGI [26]: > 100 µM | TGI [27]: > 100 µM | TGI [28]: > 100 µM | TGI [29]: > 100 µM | TGI [30]: > 100 µM | TGI [31]: > 100 µM | TGI [32]: > 100 µM | TGI [33]: > 100 µM | TGI [34]: > 100 µM | TGI [35]: > 100 µM | TGI [36]: > 100 µM | TGI [37]: > 100 µM | TGI [38]: > 100 µM | TGI [39]: > 100 µM | TGI [40]: > 100 µM | TGI [41]: > 100 µM | TGI [42]: > 100 µM | TGI [43]: > 100 µM | TGI [44]: > 100 µM | TGI [46]: > 100 µM | TGI [47]: > 100 µM | TGI [48]: > 100 µM | TGI [49]: > 100 µM | TGI [50]: > 100 µM | TGI [51]: > 100 µM | TGI [52]: > 100 µM | TGI [53]: > 100 µM | TGI [54]: > 100 µM | TGI [55]: > 100 µM | TGI [56]: > 100 µM | TGI [57]: > 100 µM | TGI [58]: > 100 µM
